# Laboratory results taken from patent US4398937A, “Selective algaecides for control of cyanochloronta” (The University of Southern Mississippi, priority 1981, dated 1983).
# What was measured:
# [1] = tested on: Cylindrospermum; assay: Selective effect on algae in test tubes (Table V), Cylindrospermum; format: cell-based; conditions: for cells/ml: 13 days after innoculation, average of 3 samples
# Method: (§1) Another laboratory experiment was run to further substantiate the selective effect of one of the algaecides, potassium ricinoleate. Two species of blue-green algae, Lyngbya and Cylindrospermum, and three species of green algae, Chlorella, Haematococcus and Stigeoclonium and Tribonema, a yellow-green alga of the division Chrysophycophyta, were treated as follows: Twenty ml test tubes of sterile BBM culture solution were innoculated with each alga. All species of algae were evaluated with three groups, control, 2.5 ppm algaecide and 7.5 ppm algaecide. Each group was run with triplicate samples.
# (§2) Controls were counted 6 days after innoculation, algaecide was added to the treatment groups seven days after innoculation and all test tubes were counted thirteen days after innoculation. The results are shown in Table V. After seven days, there was a 31% reduction in the Lyngbya cultures at 2.5 ppm algaecide and a 40% reduction at 7.5 ppm. After seven days, there was a 60% reduction in Cylindrospermum cultures at 2.5 ppm algaecide and a 72% reduction at 7.5 ppm. […] After thirteen days, there was a 55% reduction in numbers at both 2.5 ppm and 7.5 ppm. After twenty days there was a 27% reduction at both concentrations. […] They are, like blue-green algae, often associated with taste and odor problems.
# [2] = tested on: juvenile channel catfish
# [3] = tested on: zooplankton; assay: Field Experiment III, pond, zooplankton; format: in vivo; conditions: 2 ppm on 6/9/81
# Method: (§3) In Field Experiment III, a small two acre pond was monitored for a complete year for plankton organisms as before. Oscillatoria and Microcystis were usually the prevalent blue-green algae. On 6/9/81 the pond was experiencing a bloom consisting completely of Oscillatoria. Channel catfish from the ponds had the characteristic earthy, musty taste and odor of 4 and 4 respectively on the 0 to 5 scale. The pond was treated on this date with 2 ppm potassium ricinoleate, one of the selective algaecides, as before.
# [4] = tested on: Rhizochrysis; assay: Sewage treatment test 1, Rhizochrysis; conditions: six days after treatment
# Method: Two experiments were performed on sewage to further illustrate the utility of these algaecides. In the first experiment, sewage containing mostly green algae was treated with relatively high concentrations of potassium ricinoleate.
# [5] = tested on: green algae; assay: Field Experiment II, catfish pond, green algae; format: in vivo; conditions: 2 ppm
# [6] = in vivo
# [7] = tested on: blue-green algae; assay: Field Experiment II, catfish pond, blue-green algae; format: in vivo, blue-green algae (Oscillatoria and Microcystis); conditions: 2 ppm
# [8] = Field Experiment I, total organism dry weight; format: in vivo; conditions: 10 ppm
# Method: (§4) 1, 1980, to Mar. 19, 1981.
# (§5) On July 30, 1980, most ponds had numbers of blue-green algae exceeding 2×10^6 cells/liter. These algae were predominantly Oscillatoria,Microcystis and Anacystis with smaller numbers of Nostoc, Anabaena and Lyngbya. The experimental pond had 1.2×10^6 cells/liter composed mainly of Microcystis sp. Large numbers of copepods and rotifers were present. On July 30, the pond was treated with 10 ppm potassium ricinoleate by distributing a 30% aqueous solution evenly through the water column by pump from a small boat. […] This is further substantiated by the dry weights and chlorophyll a levels.
# [9] = tested on: Haematococcus; assay: Selective effect on algae in test tubes (Table V), Haematococcus; format: cell-based; conditions: for cells/ml: 13 days after innoculation, average of 3 samples
# Method: as §1, §2
# [10] = tested on: catfish fingerlings; assay: Toxicity to catfish fingerlings in aquaria; format: in vivo
# Method: For any algaecide to be useful in aquaculture, it must be without harmful effects on fish populations in ponds to be treated. Experiments to determine the effects of potassium ricinoleate on fish were performed in two 250 gallon aquaria using various concentrations of the algaecide. Batches of 25 live 5 in. catfish fingerlings were treated with 5, 10, 15, 20, 30, 35 and 100 ppm algaecide and observed for 48 hours.
# [11] = tested on: Stigeoclonium; assay: Selective effect on algae in test tubes (Table V), Stigeoclonium; format: cell-based; conditions: for cells/ml: 13 days after innoculation, average of 3 samples
# Method: as §1, §2
# [12] = tested on: Zooplankton; assay: Field Experiment I, catfish pond, zooplankton; format: in vivo, copepods and rotifers; conditions: 10 ppm
# Method: as §4, §5
# [13] = tested on: blue-green algae; assay: Field Experiment I, catfish pond, blue-green algae; format: in vivo, blue-green algae (mainly Microcystis sp.); conditions: 10 ppm
# Method: as §4, §5
# [14] = tested on: blue-green algae; assay: Field Experiment III, pond, blue-green algae; format: in vivo, blue-green algae (Oscillatoria and Microcystis); conditions: 2 ppm on 6/9/81
# Method: as §3
# [15] = tested on: bluegill fingerlings; assay: Toxicity to bluegill fingerlings; format: in vivo; conditions: 5, 10, 15, 20, 30 and 35 ppm
# Method: An additional experiment was conducted on live bluegill fingerlings at 5, 10, 15, 20, 30 and 35 ppm of the algaecide.
# [16] = tested on: Chlorophyll a; assay: Field Experiment I, chlorophyll a; format: in vivo; conditions: 10 ppm
# Method: as §4, §5
# [17] = 168 h, read-out: reduction in cultures
# [18] = 5/26/81 B post-treat, 4 p.m., Deep, prevalent Mic
# [19] = 5/26/81 C post-treat, 4 p.m., Shallow, prevalent Ped
# [20] = 5/27/81 D, 9:40 p.m., Deep, prevalent Ped
# [21] = 5/27/81 E, 9:40 p.m., Shallow, prevalent Ped
# [22] = 5/28/81 F, 7 a.m., prevalent Ped
# [23] = 5/28/81 G, 11 a.m., prevalent Ped
# [24] = 7/31 post-treatment (treated July 30, 1980)
# [25] = 11/21 post-treatment (normal winter reduction)
# [26] = 2.5 and 7.5 ppm, after seven days
compound,measurement,setting,value
CCCCCC[C@@H](O)C/C=C\CCCCCCCC(=O)[O-].[K+],cells/ml,[1]; 2.5 ppm,2500 cells/ml
same,cells/ml,[1]; 7.5 ppm,1770 cells/ml
same,inhibition of growth at 2.5 ppm,[1]; [17],60%
same,inhibition of growth at 7.5 ppm,[1]; [17],72%
same,taste or odor of cooked fish,"[2]; 10 ppm, samples February through June, 1981",no taste or odor problems
same,health of juvenile catfish,[2]; in vivo,fed and otherwise appeared healthy
same,Zoo #'s/liter,[3]; 6/10/81,2251 #'s/liter
same,Zoo #'s/liter,[3]; 6/12/81,4948 #'s/liter
same,Zoo #'s/liter,[3]; 6/22/81,4541 #'s/liter
same,presence of Rhizochrysis,[4],completely absent
same,Cells/liter green algae,[5]; [18],3.2 × 10^5 Cells/liter
same,Cells/liter green algae,[5]; [19],2.0 × 10^5 Cells/liter
same,Cells/liter green algae,[5]; [20],2.6 × 10^5 Cells/liter
same,Cells/liter green algae,[5]; [21],1.09 × 10^5 Cells/liter
same,Cells/liter green algae,[5]; [22],1.3 × 10^5 Cells/liter
same,Cells/liter green algae,[5]; [23],1.1 × 10^5 Cells/liter
same,green algae after treatment,"[5]; through June, 1981",remained unchanged
same,oxygen depletion problems,[6],no oxygen depletion problems noted
same,Cells/liter bluegreen algae,[7]; [18],4.2 × 10^5 Cells/liter
same,Cells/liter bluegreen algae,[7]; [19],0 Cells/liter
same,Cells/liter bluegreen algae,[7]; [20],1.18 × 10^4 Cells/liter
same,Cells/liter bluegreen algae,[7]; [21],0 Cells/liter
same,Cells/liter bluegreen algae,[7]; [22],5.9 × 10^3 Cells/liter
same,Cells/liter bluegreen algae,[7]; [23],0 Cells/liter
same,blue-green algae after treatment,[7]; after two days,essentially no blue-green algae present
same,Dry Wgts,[8]; [24],2.19 Gm/Liter
same,Dry Wgts,[8]; 8/1 post-treatment,4.45 Gm/Liter
same,Dry Wgts,[8]; 8/6 post-treatment,17.90 Gm/Liter
same,Dry Wgts,[8]; 8/19 post-treatment,5.34 Gm/Liter
same,Dry Wgts,[8]; 9/6 post-treatment,20.69 Gm/Liter
same,Dry Wgts,[8]; 9/23 post-treatment,9.06 Gm/Liter
same,Dry Wgts,[8]; [25],1.03 Gm/Liter
same,Dry Wgts,[8]; 12/14 post-treatment,4.84 Gm/Liter
same,effect,[9]; [26],stimulated
same,cells/ml,[9]; 2.5 ppm,23000 cells/ml
same,cells/ml,[9]; 7.5 ppm,52000 cells/ml
same,fish survival,"[10]; 35 ppm and lower, observed for 48 hours",All fish survived
same,fish mortality,"[10]; 100 ppm, at 12 hours",All fish had died
same,effect,[11]; [26],remained unchanged
same,cells/ml,[11]; 2.5 ppm,1900 cells/ml
same,cells/ml,[11]; 7.5 ppm,1900 cells/ml
same,Zooplankton #/Liter,[12]; [24],2531 #/Liter
same,Zooplankton #/Liter,[12]; 8/1 post-treatment,2500 #/Liter
same,Zooplankton #/Liter,[12]; 8/6 post-treatment,4050 #/Liter
same,Zooplankton #/Liter,[12]; 8/19 post-treatment,2025 #/Liter
same,Zooplankton #/Liter,[12]; 9/6 post-treatment,4050 #/Liter
same,Zooplankton #/Liter,[12]; 9/23 post-treatment,506 #/Liter
same,Zooplankton #/Liter,[12]; [25],1012 #/Liter
same,Zooplankton #/Liter,[12]; 12/14 post-treatment,1518 #/Liter
same,numbers of zooplankton,[12]; seven days after treatment,essentially unchanged or increased in numbers
same,Cells/Liter of bluegreen algae,[13]; [24],3.2 × 10^5 Cells/Liter
same,Cells/Liter of bluegreen algae,[13]; 8/1 post-treatment,1.8 × 10^5 Cells/Liter
same,Cells/Liter of bluegreen algae,[13]; 8/6 post-treatment,1.0 × 10^5 Cells/Liter
same,Cells/Liter of bluegreen algae,[13]; 8/19 post-treatment,5.4 × 10^5 Cells/Liter
same,Cells/Liter of bluegreen algae,[13]; 9/6 post-treatment,3.8 × 10^5 Cells/Liter
same,Cells/Liter of bluegreen algae,[13]; 9/23 post-treatment,1.9 × 10^6 Cells/Liter
same,Cells/Liter of bluegreen algae,[13]; [25],0 Cells/Liter
same,Cells/Liter of bluegreen algae,[13]; 12/14 post-treatment,3.0 × 10^4 Cells/Liter
same,blue-green algae killed,[13]; seven days after treatment,93%
same,Cells/liter bluegreen algae,"[14]; 6/10/81, prevalent Osc, Mic",2.8 × 10^6 Cells/liter
same,Cells/liter bluegreen algae,"[14]; 6/12/81, prevalent Osc",1.3 × 10^6 Cells/liter
same,Cells/liter bluegreen algae,"[14]; 6/22/81, prevalent Ped",1.2 × 10^4 Cells/liter
same,predominant alga after treatment,[14]; June 22,Pediastrum with isolated fragments of Oscillatoria filaments
same,fish survival,[15],All bluegills survived
same,Chlorophyll a,[16]; [24],.000 absorbance at 663 nm
same,Chlorophyll a,[16]; 8/1 post-treatment,.064 absorbance at 663 nm
same,Chlorophyll a,[16]; 8/6 post-treatment,.000 absorbance at 663 nm
same,Chlorophyll a,[16]; 8/19 post-treatment,.002 absorbance at 663 nm
same,Chlorophyll a,[16]; 9/6 post-treatment,.240 absorbance at 663 nm
